Results as given in the NIST ThermoML archive (doi:10.1016/j.jct.2012.09.028).

Assay: molar heat capacity at constant pressure
Settings: 101.33 kPa, Crystal, Vacuum adiabatic calorimetry

O=C[C@H](O)[C@@H](O)[C@H](O)CO [D-xylose]
Settings | molar heat capacity at constant pressure [J/K/mol]
40 K | 26.03
40.53 K | 26.51
42.93 K | 27.98
45 K | 29.36
45.13 K | 29.46
47.76 K | 31.18
50 K | 32.58
50.2 K | 32.51
53.12 K | 34.56
55 K | 35.68
55.82 K | 36.43
59.09 K | 38.3
60 K | 38.82
62.21 K | 40.2
65 K | 41.94
65.77 K | 42.39
69.15 K | 44.37
70 K | 45.05
73.12 K | 46.67
75 K | 48.14
76.88 K | 49.05
80 K | 51.21
81.26 K | 51.82
85 K | 54.27
85.51 K | 54.66
90 K | 57.3
90.3 K | 57.7
95 K | 60.32
95.15 K | 60.59
100 K | 63.33
100.35 K | 63.68
105.25 K | 66.61
110 K | 69.28
110.61 K | 69.55
115.43 K | 72.27
120 K | 75.18
120.64 K | 75.36
125.54 K | 78.61
130 K | 81.02
130.77 K | 81.56
135.74 K | 84.75
140 K | 86.83
140.87 K | 87.47
145.76 K | 90.11
150 K | 92.61
151.03 K | 93.15
155.98 K | 95.92
160 K | 98.36
161.11 K | 99.11
166.15 K | 102.13
170 K | 104.1
171.25 K | 104.92
176.34 K | 107.5
180 K | 109.83
181.48 K | 110.56
186.59 K | 113.51
190 K | 115.56
191.69 K | 116.09
196.81 K | 119.53
200 K | 121.29
201.94 K | 122.16
207.17 K | 125.24
210 K | 127.02
212.26 K | 128.07
217.5 K | 130.91
220 K | 132.76
222.61 K | 134.51
227.74 K | 137.35
230 K | 138.51
232.87 K | 140.48
237.95 K | 142.93
240 K | 144.27
243.02 K | 146.31
248.07 K | 148.9
250 K | 150.04
253.18 K | 152.43
258.24 K | 154.94
260 K | 155.83
263.22 K | 158.02
268.36 K | 160.56
270 K | 161.64
273.15 K | 163.47
273.41 K | 163.59
278.46 K | 166.47
280 K | 167.46
283.51 K | 169.47
288.47 K | 172.37
290 K | 173.3
293.61 K | 175.31
298.15 K | 178.08
298.67 K | 177.87
300 K | 179.16
303.66 K | 181.61
